In ChEMBL document CHEMBL1157444, “Sucutiniranes A and B, new cassane-type diterpenes from Bowdichia nitida” (Bioorg Med Chem Lett, 2008):
≈ marks a conversion by molar mass, not a printed value. Calls of active or inactive are those of the source. No cut-off for these calls is given here.

Assays:
Plasmodium falciparum [1] = assay: Antiplasmodial activity against Plasmodium falciparum 3D7 at 1 ug/mL; type: functional, organism-based
[2] = Cytotoxicity against human COLO201 cells; type: cell-based; conditions: COLO 201
Plasmodium falciparum [3] = assay: Antiplasmodial activity against Plasmodium falciparum 3D7; type: functional, organism-based

Compound | Activity (Plasmodium falciparum [1]) | IC50 [2] [µg/mL] | IC50 (Plasmodium falciparum [3]) [µg/mL]
CC(=O)O[C@H]1C[C@@H]([C@@H](C)C2=CC(=O)OC2)[C@H](C=O)[C@@]2(C)CCCC(C)(C)[C@H]12 | inactive | > 100 | –
CC(=O)O[C@H]1C[C@H]2[C@@H](C)c3ccoc3C[C@@H]2[C@@]2(C)CCCC(C)(C)[C@H]12 | inactive | 86.6 (≈ 251 µM) | –
CC(=O)O[C@H]1[C@H](OC(C)=O)[C@H]2C(C)(C)CCC[C@]2(C)[C@H]2Cc3occc3[C@H](C)[C@H]12 | – | > 100 | 0.39 (≈ 0.969 µM)
CC(=O)O[C@H]1C[C@@H]2[C@H]([C@H](O)[C@]3(C=COC3=O)[C@@H]2C)[C@@]2(C)CCCC(C)(C)[C@H]12 | inactive | > 100 | –
CC(=O)O[C@H]1C[C@H]2[C@@H](C)C3=CC(=O)O[C@@H]3C[C@@H]2[C@@]2(C)CCCC(C)(C)[C@H]12 [12-DEOXY-SUCUTINIRANE A] | inactive | > 100 | –
CC(=O)O[C@H]1C[C@H]2[C@@H](C)C3=CC(=O)O[C@]3(O)C[C@@H]2[C@@]2(C)CCCC(C)(C)[C@H]12 [SUCUTINIRANE A] | inactive | 37.3 (≈ 99.1 µM) | –
